Experiments:
[1] = biological target: T1, purified human MAP4K4 kinase domain (Homo sapiens, UniProt O95819); assay: MAP4K4 Inhibition Assay Protocol No. 2 (Z'-LYTE FRET); type: biochemical; conditions: Assay 2; 1 nM enzyme, 10 uM ATP, 60 min
T1 construct: purified human MAP4K4 kinase domain
Source text: The kinase activity of purified human MAP4K4 kinase domain was monitored using Z'-LYTE™ technology from Invitrogen to determine inhibition constants (IC50) of small molecule inhibitors. The Z'-LYTE™ biochemical assay employs a fluorescence-based, coupled-enzyme format and is based on the differential sensitivity of phosphorylated and non-phosphorylated peptides to proteolytic cleavage. In the primary reaction, the kinase transfers the gamma-phosphate of ATP to a single tyrosine, serine or threonine residue in a synthetic FRET-peptide. In the secondary reaction, a site-specific protease recognizes and cleaves non-phosphorylated FRET-peptides. Phosphorylation of FRET-peptides suppresses cleavage by the Development Reagent. Cleavage disrupts FRET between the donor (i.e., coumarin) and acceptor (i.e., fluorescein) fluorophores on the FRET-peptide, whereas uncleaved, phosphorylated FRET-peptides maintain FRET. To determine inhibition constants (IC50), compounds were serially diluted in DMSO and added to 10 uL kinase reactions containing 1 nM purified MAP4K4 enzyme, 2 uM ser/thr7 Z'-LYTE™ substrate, 10 uMATP, 50 mM Hepes (pH 7.5), 10 mM MgCl2, 1 mM EGTA, 0.01% Brij-35, and 2% DMSO. Reactions were incubated at room temperature in Corning Black 384 well plates (Corning#3573) for 60 minutes and stopped by the addition of 5 uL of Z'-LYTE™ development reagent A and incubated at room temp for 60 minutes. The plate is then analyzed on Perkin Elmer Envision by FRET mode. The high ratio of coumarin/fluorescein represents 0% phosphorylation rate while low ratio of coumarin/fluorescein represents 100% phosphorylation rate. The following equations are used to determine extent of peptide phosphorylation or inhibition: […]

[2] = biological target: T1, purified human MAP4K4 kinase domain; assay: MAP4K4 Inhibition Assay Protocol No. 1 (Caliper LabChip, moesin-derived peptide phosphorylation); type: biochemical; conditions: Assay 1; 1 nM enzyme, 10 uM ATP, 45 min
Experimental: The kinase activity of purified human MAP4K4 kinase domain was measured by monitoring the phosphorylation of a peptide substrate derived from moesin protein (Leu-Gly-Arg-Asp-Lys-Tyr-Lys-Thr-Leu-Arg-Gln-Ile-Arg-Gln) fluorescently labeled on the N-terminus with 5-carboxyfluorescein using the Caliper LabChip technology (Caliper Life Sciences, Hopkinton, Mass.). To determine inhibition constants (IC50), compounds were serially diluted in DMSO and added to 10 uL kinase reactions containing 1 nM purified MAP4K4 enzyme, 1 uM peptide substrate, 10 uM ATP, 10 mM MgCl2, 1 mM EGTA, 50 mM Hepes pH 7.2, 1 mM DTT, 0.01% Triton X-100, and 2% DMSO. Reactions were incubated at room temperature in Perkin Elmer Proxiplates for 45 minutes and stopped by the addition of 10 uL of an EDTA-containing solution (50 mM Hepes pH 7.2, 40 mM EDTA, 0.02% Triton X-100). The fraction of phosphorylated peptide was determined as a fraction of total peptide substrate using the Caliper Lab Chip 3000 according to the manufacturer's instructions. IC50 values were determined using the four-parameter non-linear fit model.

T1 sequence (O95819 25-289 limits assumed): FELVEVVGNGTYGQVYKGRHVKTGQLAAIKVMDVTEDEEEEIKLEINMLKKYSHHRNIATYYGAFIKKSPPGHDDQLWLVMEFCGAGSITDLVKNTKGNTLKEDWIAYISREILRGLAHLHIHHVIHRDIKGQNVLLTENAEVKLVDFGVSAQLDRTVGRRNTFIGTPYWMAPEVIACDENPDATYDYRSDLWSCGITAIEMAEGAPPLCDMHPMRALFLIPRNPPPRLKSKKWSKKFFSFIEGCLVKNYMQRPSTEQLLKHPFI

Structure (SMILES) | IC50 [1] | IC50 [2]
Cn1cnc(-c2cnc(N)c3cc(-c4cccc(F)c4)ccc23)c1 [Example 10, 7-(3-fluorophenyl)-4-(1-methylimidazol-4-yl)isoquinolin-1-amine] | 0.0287 µM | 
Nc1ncc(-c2ncco2)c2ccc(-c3cccc(F)c3)cc12 [Example 11, 7-(3-fluorophenyl)-4-oxazol-2-yl-isoquinolin-1-amine] | 0.00873 µM | 
Cn1ncnc1-c1cnc(N)c2cc(-c3cccc(F)c3)ccc12 [Example 12, 7-(3-fluorophenyl)-4-(2-methyl-1,2,4-triazol-3-yl)isoquinolin-1-amine] | 0.218 µM | 
Nc1ncc(C(=O)NC2CN(C(=O)N3CCS(=O)(=O)CC3)C2)c2ccc(-c3cccc(F)c3)nc12 [Example 15, 8-amino-N-(1-(1,1-dioxidothiomorpholine-4-carbonyl)azetidin-3-yl)-2-(3-fluorophenyl)-1,7-naphthyridine-5-carboxamide] | 0.00455 µM | 
CC(O)C(=O)N1CC(NC(=O)c2cnc(N)c3nc(-c4cccc(F)c4)ccc23)C1 (stereo not shown) [Example 16, 8-amino-2-(3-fluorophenyl)-N-(1-(2-hydroxypropanoyl)azetidin-3-yl)-1,7-naphthyridine-5-carboxamide] | 0.0045 µM | 
Nc1ncc(C(=O)NC2CN(C(=O)C3COC3)C2)c2ccc(-c3cccc(F)c3)nc12 [Example 17, 8-amino-2-(3-fluorophenyl)-N-(1-(oxetane-3-carbonyl)azetidin-3-yl)-1,7-naphthyridine-5-carboxamide] | 0.0195 µM | 
CS(=O)(=O)N1CC(NC(=O)c2cnc(N)c3nc(-c4cccc(F)c4)ccc23)C1 [Example 18, 8-amino-2-(3-fluorophenyl)-N-(1-(methylsulfonyl)azetidin-3-yl)-1,7-naphthyridine-5-carboxamide] | 0.0116 µM | 
CN(C)S(=O)(=O)N1CC(NC(=O)c2cnc(N)c3nc(-c4cccc(F)c4)ccc23)C1 [Example 19, 8-amino-N-(1-(N,N-dimethylsulfamoyl)azetidin-3-yl)-2-(3-fluorophenyl)-1,7-naphthyridine-5-carboxamide] | 0.00385 µM | 
Nc1ncc(C(=O)NC2CN(C(=O)CN3CCOCC3)C2)c2ccc(-c3cccc(F)c3)nc12 [Example 20, 8-amino-2-(3-fluorophenyl)-N-(1-(2-morpholinoacetyl)azetidin-3-yl)-1,7-naphthyridine-5-carboxamide] | 0.0068 µM | 
Nc1ncc(C(=O)NC2CN(S(N)(=O)=O)C2)c2ccc(-c3cccc(F)c3)nc12 [Example 21, 8-amino-2-(3-fluorophenyl)-N-(1-sulfamoylazetidin-3-yl)-1,7-naphthyridine-5-carboxamide] | 0.0018 µM | 
Nc1ncc(C(=O)NC2CN(CC(F)(F)F)C2)c2ccc(-c3cccc(F)c3)nc12 [Example 22, 8-amino-2-(3-fluorophenyl)-N-(1-(2,2,2-trifluoroethyl)azetidin-3-yl)-1,7-naphthyridine-5-carboxamide] | 0.0244 µM | 
Nc1ncc(C(=O)NC2CN(S(=O)(=O)C(F)(F)F)C2)c2ccc(-c3cccc(F)c3)nc12 [Example 23, 8-amino-2-(3-fluorophenyl)-N-(1-((trifluoromethyl)sulfonyl)azetidin-3-yl)-1,7-naphthyridine-5-Carboxamide] | 0.0285 µM | 
C[C@@H](O)C(=O)N1CC(NC(=O)c2cnc(N)c3nc(-c4cccc(F)c4)ccc23)C1 [Example 24, (R)-8-amino-2-(3-fluorophenyl)-N-(1-(2-hydroxypropanoyl)azetidin-3-yl)-1,7-naphthyridine-5-carboxamide] | 0.004 µM | 
C[C@H](O)C(=O)N1CC(NC(=O)c2cnc(N)c3nc(-c4cccc(F)c4)ccc23)C1 [Example 25, (S)-8-amino-2-(3-fluorophenyl)-N-(1-(2-hydroxypropanoyl)azetidin-3-yl)-1,7-naphthyridine-5-carboxamide] | 0.00918 µM | 
CC(=O)N1CC(NC(=O)c2cnc(N)c3nc(-c4cccc(F)c4)ccc23)C1 [Example 26, N-(1-acetylazetidin-3-yl)-8-amino-2-(3-fluorophenyl)-1,7-naphthyridine-5-carboxamide] | 0.00411 µM | 
Nc1ncc(C(=O)NC2CN(C(=O)N3CCOCC3)C2)c2ccc(-c3cccc(F)c3)nc12 [Example 27, 8-amino-2-(3-fluorophenyl)-N-(1-(morpholine-4-carbonyl)azetidin-3-yl)-1,7-naphthyridine-5-carboxamide] | 0.0147 µM | 

Structure (SMILES) | IC50 [1] | IC50 [2]
Nc1ncc(-c2nnco2)c2ccc(-c3cccc(F)c3)nc12 [Example 28, 2-(3-fluorophenyl)-5-(1,3,4-oxadiazol-2-yl)-1,7-naphthyridin-8-amine] | 0.002 µM | 
CCC(=O)NC1CN(C(=O)c2cnc(N)c3nc(-c4cccc(F)c4)ccc23)C1 [Example 29, N-(1-(8-amino-2-(3-fluorophenyl)-1,7-naphthyridine-5-carbonyl)azetidin-3-yl)propionamide] | 0.0608 µM | 
Nc1ncc(C(=O)N2CC(NC(=O)C3CC3)C2)c2ccc(-c3cccc(F)c3)nc12 [Example 30, N-(1-(8-amino-2-(3-fluorophenyl)-1,7-naphthyridine-5-carbonyl)azetidin-3-yl)cyclopropanecarboxamide] | 0.0139 µM | 
Nc1ncc(C(=O)N2CC(N(C(=O)C3CC3)C(=O)C3CC3)C2)c2ccc(-c3cccc(F)c3)nc12 [Example 31, N-(1-(8-amino-2-(3-fluorophenyl)-1,7-naphthyridine-5-carbonyl)azetidin-3-yl)-N-(cyclopropanecarbonyl)cyclopropanecarboxamide] | 0.284 µM | 
CC(=O)NC1CN(C(=O)c2cnc(N)c3nc(-c4cccc(F)c4)ccc23)C1 [Example 32, N-(1-(8-amino-2-(3-fluorophenyl)-1,7-naphthyridine-5-carbonyl)azetidin-3-yl)acetamide] | 0.0198 µM | 
Nc1ncc(C(=O)NC2CCC2)c2ccc(-c3cccc(F)c3)nc12 [Example 33, 8-amino-N-cyclobutyl-2-(3-fluorophenyl)-1,7-naphthyridine-5-carboxamide] | 0.00165 µM | 
CNC(=O)N1CC(NC(=O)c2cnc(N)c3nc(-c4cccc(F)c4)ccc23)C1 [Example 34, 8-amino-2-(3-fluorophenyl)-N-(1-(methylcarbamoyl)azetidin-3-yl)-1,7-naphthyridine-5-carboxamide] | 0.0016 µM | 
CCC(=O)N1CC(NC(=O)c2cnc(N)c3nc(-c4cccc(F)c4)ccc23)C1 [Example 35, 8-amino-2-(3-fluorophenyl)-N-(1-propionylazetidin-3-yl)-1,7-naphthyridine-5-carboxamide] | 0.00378 µM | 
Nc1ncc(C(=O)NC2CN(C(=O)C3CC3)C2)c2ccc(-c3cccc(F)c3)nc12 [Example 37, 8-amino-N-(1-(cyclopropanecarbonyl)azetidin-3-yl)-2-(3-fluorophenyl)-1,7-naphthyridine-5-carboxamide] | 0.00294 µM | 
Nc1ncc(C(=O)NC2COC2)c2ccc(-c3cccc(F)c3)nc12 [Example 38, 8-amino-2-(3-fluorophenyl)-N-(oxetan-3-yl)-1,7-naphthyridine-5-carboxamide] | 0.00569 µM | 
COCC(=O)N1CC(NC(=O)c2cnc(N)c3nc(-c4cccc(F)c4)ccc23)C1 [Example 39, 8-amino-2-(3-fluorophenyl)-N-(1-(2-methoxyacetyl)azetidin-3-yl)-1,7-naphthyridine-5-carboxamide] | 0.0044 µM | 
CC(C)CNC(=O)c1cnc(N)c2nc(-c3cccc(F)c3)ccc12 [Example 40, 8-amino-2-(3-fluorophenyl)-N-isobutyl-1,7-naphthyridine-5-carboxamide] | 0.00563 µM | 
CN(C(=O)c1cnc(N)c2nc(-c3cccc(F)c3)ccc12)C1CN(C(=O)C2CC2)C1 [Example 41, 8-amino-N-(1-(cyclopropanecarbonyl)azetidin-3-yl)-2-(3-fluorophenyl)-N-methyl-1,7-naphthyridine-5-carboxamide] | 1.2 µM | 
CCC(=O)N1CC(NC(=O)c2cnc(N)c3cc(-c4cccc(F)c4)ccc23)C1 [Example 125, 1-amino-7-(3-fluorophenyl)-N-(1-propanoylazetidin-3-yl)isoquinoline-4-carboxamide] |  | 0.0503 µM
Nc1ncc(C(=O)NC2CN(C(=O)C3CC3)C2)c2ccc(-c3cccc(F)c3)cc12 [Example 126, 1-amino-N-[1-(cyclo-propanecarbonyl)azetidin-3-yl]-7-(3-fluorophenyl)isoquinoline-4-carboxamide] |  | 0.0357 µM

Reference: patent US9586956B2, “Isoquinoline and naphthyridine derivatives” (Genentech, Inc., priority 2012, dated 2017)
